Source: patent publication US10265294B2, “Compositions and methods for treating epithelial cancer” (YALE UNIVERSITY, priority 2016, dated 2019)

Tests used:
[1] = system: OCSC2 (chemoresistant CD44+/MyD88+ ovarian cancer stem cell clone); assay: Real-time measurement of cell number/cell death and IC50, OCSC2 clone; assay type: cell-based, human; settings: OCSC2, 24 hours (FIG. 1G)
Procedure: (§1) CD44+/MyD88+ ovarian cancer stem cell clones (OCSC1 and OCSC2) and CD44−/MyD88− ovarian cancer cells (OCC1 and OCC2) were isolated from either tumor tissue or ascites obtained from patients diagnosed with stage III/IV serous ovarian cancer and propagated (Alvero, et al., 2009, Cell Cycle 8:158-166; Chefetz, et al., 2013, Cell Cycle 12:511-521). The epithelial nature of the isolated cells was determined by immunostaining for Ck18. Purity of the cultures based on CD44 expression by flow cytometry and chemoresistance were routinely tested. Stable expression of nuclear-restricted red fluorescent (in OCSCs) or green fluorescent proteins (in OCCs) was performed by transduction using NUCLIGHT® Red or Green Lentivirus Reagent (Essen Bioscience, Ann Arbor, Mich.). Spheroids were formed from OCSCs by culturing in ultra-low attachment multi-well plates (Corning, Inc., Corning, N.Y.).
(§2) Effect of each compound on cell morphology, growth, and viability was assessed using a kinetic live cell imaging system (Incucyte, Essen Bioscience). Proliferation was calculated as previously described (Alvero, et al., 2011, Mol. Cancer Ther. 10:1385-1393) using metrics from either confluence or fluorescent count from nuclear-restricted RFP or GFP. Cell death was quantified; similarly CELLTOX® Green Cytotoxicity Assay (Promega, Madison, Wis.). IC50 was calculated as described using GraphPad Prism (GraphPad Software Inc., LaJolla, Calif.).
A panel of four different SBP subfamilies with cytotoxic activity against chemoresistant ovarian cancer stem cells were tested for efficacy in inducing ovarian cancer stem cell death. […] The efficacy of each analog was determined based on its IC50.
TRX-E-002 exists as a racemic mixture comprised of two enantiomers, enantiomer A (TRX-E-002-1) and enantiomer B (TRX-E-002-2). Thus, the enantiomers were separated and assessed separately. […]

[2] = system: OCC1 (CD44-/MyD88- ovarian cancer cells); assay: IC50 against chemosensitive ovarian cancer cells OCC1; assay type: cell-based, human; settings: read-out: IC50 (percentage of viable cells)
Procedure: CD44+/MyD88+ ovarian cancer stem cell clones (OCSC1 and OCSC2) and CD44−/MyD88− ovarian cancer cells (OCC1 and OCC2) were isolated from either tumor tissue or ascites obtained from patients diagnosed with stage III/IV serous ovarian cancer and propagated (Alvero, et al., 2009, Cell Cycle 8:158-166; Chefetz, et al., 2013, Cell Cycle 12:511-521). The epithelial nature of the isolated cells was determined by immunostaining for Ck18. Purity of the cultures based on CD44 expression by flow cytometry and chemoresistance were routinely tested. […]
as §2
Once the efficacy of TRX-E-002-1 against chemoresistant OCSC was established, its activity against two clones of chemosensitive ovarian cancer cells (OCC1 and OCC2) was determined.

[3] = system: co-culture of RFP-labeled OCSC2 and GFP-labeled OCC2; assay: In vitro co-culture model 50% RFP-OCSC2 / 50% GFP-OCC2; assay type: cell-based; settings: co-culture 50/50; TRX-E-002-1 0.12 μM, Cisplatin 20 μM
Procedure: as §1, §2
Without wishing to be limited by any theory, response to chemotherapy may be modified by cross-talk among different cancer cell types within the tumor. Thus, to mimic the heterogeneity of ovarian tumors an in vitro co-culture model consisting of RFP-labeled chemoresistant OCSC2 and GFP-labeled chemosensitive OCC2 was used. The co-cultures, which are comprised of 50% RFP-OCSC2 and 50% GFP-OCC2 at time of treatment, were exposed to TRX-E-002-1, cisplatin, or the combination of both. Since GFP-OCC2 has faster doubling time than RFP-OCSC2, it overtook the control co-cultures by the end of the experiment and thus the control co-cultures are mainly comprised of GFP-OCC2 by the 24 h time-point (FIG. 2B).

OCSC2 spheroids = assay: 3D spheroid integrity by kinetic imaging; assay type: cell-based, human; settings: compared to the control; dose-dependent
Procedure: as §1
Spheroids represent a 3D in vitro tumor model of multiple cell layers that mimic tumors in vivo. In ovarian cancer, spheroid cultures not only mimic ovarian solid tumors, but also ovarian cancer cells found in malignant ascites. Spheroid cultures allow one to test the capacity of compounds to diffuse through multiple layers of cells and induce cell death. It further allows one to test the efficacy of treatment against the mesenchymal cancer subtype. […]

[4] = mouse, in vivo
Source text: (§3) The Yale University Institutional Animal Care and Use Committee approved all in vivo studies described. Intra-peritoneal tumors were established in athymic nude mice using 4×10^6 mCherry+OCSC1-F2 ovarian cancer cells (Craveiro, et al., 2013, Cancer Med. 2:751-762). Injection of cancer cells is designated as day 0 and treatment commenced between day 3-5. Establishment of i.p. tumors was confirmed by live imaging (In-Vivo FX PRO, Bruker Corp., Billerica, Mass.) prior to treatment. TRX-E-002-1 was prepared in 20% Captisol or Dexsolve and administered daily at 50 mg/kg or 100 mg/kg. Paclitaxel was given at 12 mg/kg q3d and Cisplatin at 5 mg/kg weekly. All treatments were given i.p. Tumor growth was monitored q3d by live imaging and response to treatment was assessed using ROI area.
To determine activity against primary disease as well as to determine the maximum tolerated dose (MTD), a dose response study was performed. […] Animals however recovered from the distension upon cessation of treatment. […] Thus, the MTD was established at daily 100 mg/kg i.p. and this dose was employed for the succeeding studies employing combination treatment.

[5] = system: i.p. tumors of mCherry+OCSC1-F2 ovarian cancer cells; assay: Recurrent disease xenograft, maintenance treatment after Paclitaxel; assay type: in vivo
Source text: as §3
Although the standard of care for ovarian cancer patients (platinum plus taxane) is effective initially, most patients develop recurrent disease. Recurrence is the major cause of mortality in ovarian cancer patients, and thus approaches that can prevent recurrence are critical to improve patient survival. As described elsewhere herein, a unique advantage of the xenograft model is the recapitulation of recurrent disease that is typically observed in patients with ovarian cancer. […] Upon recurrence, tumors acquire resistance and become unresponsive to a second-round of Paclitaxel regimen, as observed in ovarian cancer patients. Thus, the model allows one to assess the value of novel compounds in preventing recurrence when given as maintenance treatment.
Thus mice were given Paclitaxel as initial treatment. […] After the 4th dose of Paclitaxel mice were re-randomized into the different maintenance groups. Here the maintenance protocol consisted of continued treatment with Paclitaxel, or maintenance with TRX-E-002-1 (100 mg/kg), or maintenance with Vehicle control.

With `COc1cc(C2COc3c(ccc(O)c3C)C2c2ccc(O)cc2)cc(OC)c1O` (single isomer, unassigned) [TRX-E-002-1] as the compound, how does the IC50 [1] read?
Its IC50 is 47 nM.

And the IC50 [2]?
The IC50 was 68 nM.

And the “number of GFP+ cells (GFP-OCC2)” value [3]?
The value was “markedly reduced”.

And the “number of mCherry+ cells (RFP-OCSC2)” value [3]?
The value was “markedly reduced”.

And the “amount of intact spheroids” value (OCSC2 spheroids)?
Its value is “significantly decreased”.

What about the “toxicity at high concentrations in animal studies” value [4] of the same compound?
Its value is “evidence of some potential toxicity”.

And the “maximum tolerated dose (MTD)” value ([4]; ip)?
Its value is 100 mg/kg.

What about the “tolerability of the maintenance schedule” value ([5]; TRX-E-002-1 100 mg/kg daily i.p. maintenance) of the same compound?
The value was “no signs of disease or morbidity requiring euthanasia”.

What about the “tumor progression during maintenance treatment” value ([5]; after 4th dose of Paclitaxel, TRX-E-002-1 100 mg/kg daily i.p. or continued Paclitaxel) of the same compound?
The value was “effectively retarded tumor proliferation”.

And the “tumor burden (ROI area) versus group maintained with Paclitaxel” value ([5]; by day 35, TRX-E-002-1 100 mg/kg maintenance)?
Its value is “significantly less”.

What about the “gross examination of residual disease” value ([5]; maintenance groups) of the same compound?
The value was “microscopic metastasis”.

And the “tumor weights at end point compared to control” value ([5]; maintenance groups)?
Its value is “significantly reduced”.
